Measured values as given in PubChem BioAssay (NCI).
Several values for one entry are separate records, joined by “and”; a condition that tells them apart may be missing. Equal values may be shown once.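 Five compound concentrations were applied to cells in 96-well plates for 48 hours; endpoints were derived by simple linear interpolation of the resulting dose-response curve. Abbreviation: GI50, concentration required for 50% inhibition of growth. TGI denotes the concentration required for complete inhibition of growth.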

What was measured:
Assay in all cases: growth of human tumour cells (NCI), 48 h
A498 renal = test system: A498 renal
A549 NSCLC = test system: A549 NSCLC
COLO 205 colon = test system: COLO 205 colon
HCT-116 colon = test system: HCT-116 colon
KM12 colon = test system: KM12 colon
SF-295 CNS = test system: SF-295 CNS
SK-MEL-2 melanoma = test system: SK-MEL-2 melanoma
SN12C renal = test system: SN12C renal
SW-620 colon = test system: SW-620 colon
TK-10 renal = test system: TK-10 renal

CCN(CC)CCC(CNc1c2ccc([N+](=O)[O-])cc2nc2cc(OC)c(OC)cc12)c1ccccc1 (configuration not stated)
GI50 (A498 renal): 1.69 µM and 1.19 µM | TGI (A498 renal): 3.12 µM and 2.52 µM | GI50 (A549 NSCLC): 0.177 µM and 0.132 µM | TGI (A549 NSCLC): 0.401 µM and 0.541 µM | GI50 (COLO 205 colon): 0.152 µM and 0.0895 µM | TGI (COLO 205 colon): 0.448 µM and 0.299 µM | GI50 (HCT-116 colon): 0.0898 µM and 0.0472 µM | TGI (HCT-116 colon): 1.14 µM and 0.491 µM | GI50 (KM12 colon): 0.276 µM and 0.105 µM | TGI (KM12 colon): 1.13 µM and 0.542 µM | GI50 (SF-295 CNS): 1.09 µM and 0.93 µM | TGI (SF-295 CNS): 2.49 µM and 2.65 µM | GI50 (SK-MEL-2 melanoma): 0.229 µM and 0.0816 µM | TGI (SK-MEL-2 melanoma): 0.609 µM and 0.253 µM | GI50 (SN12C renal): 0.229 µM and 0.218 µM | TGI (SN12C renal): 1.22 µM and 1.49 µM | GI50 (SW-620 colon): 0.145 µM and 0.0727 µM | TGI (SW-620 colon): 1.1 µM and 0.763 µM | GI50 (TK-10 renal): 1.04 µM and 0.485 µM | TGI (TK-10 renal): 2.27 µM and 1.62 µM

O=C(O)c1ccc([N+](=O)[O-])c(P(=O)(O)O)c1
TGI (A498 renal): > 100 µM | TGI (A549 NSCLC): > 100 µM | TGI (COLO 205 colon): > 100 µM | TGI (HCT-116 colon): > 100 µM | TGI (KM12 colon): > 100 µM | TGI (SF-295 CNS): > 100 µM | TGI (SK-MEL-2 melanoma): > 100 µM | TGI (SN12C renal): > 100 µM | TGI (SW-620 colon): > 100 µM | TGI (TK-10 renal): > 100 µM

S=C(Nc1ccc(-c2nc3ccccc3s2)cc1)Nc1ccccn1
GI50 (A498 renal): 19.8 µM | TGI (A498 renal): 44.7 µM | GI50 (A549 NSCLC): 27 µM | TGI (A549 NSCLC): > 100 µM | GI50 (COLO 205 colon): 18.9 µM | TGI (COLO 205 colon): 42.3 µM | GI50 (HCT-116 colon): 21.5 µM | TGI (HCT-116 colon): 55.5 µM | GI50 (KM12 colon): 21.9 µM | TGI (KM12 colon): > 70.8 µM | GI50 (SF-295 CNS): 24.5 µM | TGI (SF-295 CNS): 66.3 µM | GI50 (SK-MEL-2 melanoma): 22.7 µM | TGI (SK-MEL-2 melanoma): 50.3 µM | GI50 (SN12C renal): 22.9 µM | TGI (SN12C renal): 63.6 µM | GI50 (SW-620 colon): 40.1 µM | TGI (SW-620 colon): > 100 µM | GI50 (TK-10 renal): 24.1 µM | TGI (TK-10 renal): 70.2 µM

CCN1CCN(CCNc2nccc(-c3c(-c4cccc(O)c4)nc4sccn34)n2)S1(=O)=O
GI50 (A498 renal): 16.6 µM and 3.97 µM | TGI (A498 renal): 32.5 µM and 25.6 µM | GI50 (A549 NSCLC): 15.4 µM and 9.27 µM | TGI (A549 NSCLC): 32.5 µM and > 100 µM | GI50 (COLO 205 colon): 0.296 µM and 0.336 µM | TGI (COLO 205 colon): 32.5 µM and 15.9 µM | GI50 (HCT-116 colon): 9.72 µM and 3.63 µM | TGI (HCT-116 colon): 32.5 µM and 55.3 µM | GI50 (KM12 colon): 11 µM and 11.2 µM | TGI (KM12 colon): 32.5 µM and > 100 µM | GI50 (SF-295 CNS): 14.2 µM and 16.4 µM | TGI (SF-295 CNS): 32.5 µM and 48.8 µM | GI50 (SK-MEL-2 melanoma): 2.05 µM and 2.6 µM | TGI (SK-MEL-2 melanoma): 10.4 µM and 7.27 µM | GI50 (SN12C renal): 15.2 µM and 7.73 µM | TGI (SN12C renal): 32.5 µM and > 100 µM | GI50 (SW-620 colon): 21.1 µM and 15.7 µM | TGI (SW-620 colon): 32.5 µM and 92.5 µM | GI50 (TK-10 renal): 19.4 µM and 9.68 µM | TGI (TK-10 renal): 32.5 µM and > 100 µM

Clc1cccc(Cn2cc(Cc3cn(Cc4cccc(Cl)c4)c4ccccc34)c3ccccc32)c1
GI50 (A498 renal): > 100 µM | TGI (A498 renal): > 100 µM | GI50 (A549 NSCLC): > 100 µM | TGI (A549 NSCLC): > 100 µM | GI50 (COLO 205 colon): > 100 µM | TGI (COLO 205 colon): > 100 µM | GI50 (HCT-116 colon): > 100 µM | TGI (HCT-116 colon): > 100 µM | GI50 (KM12 colon): > 100 µM | TGI (KM12 colon): > 100 µM | GI50 (SF-295 CNS): 86.2 µM | TGI (SF-295 CNS): > 100 µM | GI50 (SK-MEL-2 melanoma): > 100 µM | TGI (SK-MEL-2 melanoma): > 100 µM | GI50 (SN12C renal): > 100 µM | TGI (SN12C renal): > 100 µM | GI50 (SW-620 colon): > 100 µM | TGI (SW-620 colon): > 100 µM | GI50 (TK-10 renal): 92.6 µM | TGI (TK-10 renal): > 100 µM

O=C(/C=C/c1ccccc1O)c1ccccc1
GI50 (A498 renal): 15.2 µM | TGI (A498 renal): 28.6 µM | GI50 (A549 NSCLC): 17 µM | TGI (A549 NSCLC): 36.1 µM | GI50 (COLO 205 colon): 17.3 µM | TGI (COLO 205 colon): 38 µM | GI50 (HCT-116 colon): 1.58 µM | TGI (HCT-116 colon): 2.99 µM | GI50 (KM12 colon): 1.77 µM | TGI (KM12 colon): 4.16 µM | GI50 (SF-295 CNS): 10.9 µM | TGI (SF-295 CNS): 26.4 µM | GI50 (SN12C renal): 12.9 µM | TGI (SN12C renal): 28.7 µM | GI50 (SW-620 colon): 1.8 µM | TGI (SW-620 colon): 3.72 µM | GI50 (TK-10 renal): 11.9 µM | TGI (TK-10 renal): 24.7 µM

NC(Cc1cc(Br)c(O)c(Br)c1)C(=O)O (configuration not stated)
TGI (A498 renal): > 100 µM | TGI (A549 NSCLC): > 100 µM | TGI (COLO 205 colon): > 100 µM | TGI (HCT-116 colon): > 100 µM | TGI (KM12 colon): > 100 µM | TGI (SF-295 CNS): > 100 µM | TGI (SK-MEL-2 melanoma): > 100 µM | TGI (SN12C renal): > 100 µM | TGI (SW-620 colon): > 100 µM | TGI (TK-10 renal): > 100 µM

Cn1nc(-c2ccccc2)c(C(=O)/C=C/c2ccccc2)c(N2CCCCC2)c1=O
TGI (A549 NSCLC): > 100 µM | TGI (COLO 205 colon): > 100 µM | TGI (HCT-116 colon): > 100 µM | TGI (SN12C renal): > 100 µM | TGI (SW-620 colon): > 100 µM | TGI (TK-10 renal): > 100 µM

CNC(=O)c1cc(Oc2ccc3nc(NC(=O)c4cc(C(F)(F)F)cc(C(F)(F)F)c4)sc3c2)ccn1
GI50 (A498 renal): 1.45 µM | TGI (A498 renal): 4.51 µM | GI50 (A549 NSCLC): 3.99 µM | TGI (A549 NSCLC): 14.6 µM | GI50 (COLO 205 colon): 2.82 µM | TGI (COLO 205 colon): 8.21 µM | GI50 (HCT-116 colon): 3.41 µM | TGI (HCT-116 colon): 11.9 µM | GI50 (KM12 colon): 2.7 µM | TGI (KM12 colon): 11 µM | GI50 (SF-295 CNS): 2.56 µM | TGI (SF-295 CNS): 10.5 µM | GI50 (SK-MEL-2 melanoma): 2.32 µM | TGI (SK-MEL-2 melanoma): 6.7 µM | GI50 (SN12C renal): 3.22 µM | TGI (SN12C renal): 12.5 µM | GI50 (SW-620 colon): 7.56 µM | TGI (SW-620 colon): 63.8 µM | GI50 (TK-10 renal): 3.37 µM | TGI (TK-10 renal): 13.3 µM

CC12Oc3ccc4ccccc4c3C1c1c(ccc3ccccc13)O2 (configuration not stated)
TGI (A549 NSCLC): > 100 µM | TGI (COLO 205 colon): > 100 µM | TGI (HCT-116 colon): > 100 µM | TGI (KM12 colon): > 100 µM | TGI (SF-295 CNS): > 100 µM | TGI (SK-MEL-2 melanoma): > 100 µM | TGI (SN12C renal): > 100 µM | TGI (SW-620 colon): > 100 µM | TGI (TK-10 renal): > 100 µM

CCOc1ccc(/C=N/Nc2cc(C)nc3ccc(Cl)cc23)cc1
GI50 (A498 renal): 1.7 µM | TGI (A498 renal): 3.45 µM | GI50 (A549 NSCLC): 2 µM | TGI (A549 NSCLC): 3.72 µM | GI50 (COLO 205 colon): 1.91 µM | TGI (COLO 205 colon): 3.47 µM | GI50 (KM12 colon): 1.89 µM | TGI (KM12 colon): 3.65 µM | GI50 (SF-295 CNS): 1.76 µM | TGI (SF-295 CNS): 3.24 µM | GI50 (SK-MEL-2 melanoma): 1.9 µM | TGI (SK-MEL-2 melanoma): 3.43 µM | GI50 (SN12C renal): 1.82 µM | TGI (SN12C renal): 3.4 µM | GI50 (SW-620 colon): 1.97 µM | TGI (SW-620 colon): 4.02 µM | GI50 (TK-10 renal): 1.91 µM | TGI (TK-10 renal): 3.37 µM

CCCCC(SC(=S)N(CC)CC)C(=O)Nc1nc(CC(=O)OCC)cs1 (configuration not stated)
GI50 (A498 renal): 54.3 µM | TGI (A498 renal): > 100 µM | GI50 (A549 NSCLC): 30.8 µM | TGI (A549 NSCLC): > 100 µM | GI50 (HCT-116 colon): 29.8 µM | TGI (HCT-116 colon): > 100 µM | GI50 (KM12 colon): 31.6 µM | TGI (KM12 colon): > 100 µM | GI50 (SF-295 CNS): 38.6 µM | TGI (SF-295 CNS): > 100 µM | GI50 (SK-MEL-2 melanoma): 29.2 µM | TGI (SK-MEL-2 melanoma): 86 µM | GI50 (SN12C renal): 77.8 µM | TGI (SN12C renal): > 100 µM | GI50 (SW-620 colon): 38 µM | TGI (SW-620 colon): > 100 µM | GI50 (TK-10 renal): 82.9 µM | TGI (TK-10 renal): > 100 µM

CCOC(=O)CC(=O)N(c1ccc(OC)cc1)C(C(=O)OC)c1ccccc1 (configuration not stated)
TGI (A549 NSCLC): > 100 µM | TGI (COLO 205 colon): > 100 µM | TGI (HCT-116 colon): > 100 µM | TGI (KM12 colon): > 100 µM | TGI (SF-295 CNS): > 100 µM | TGI (SK-MEL-2 melanoma): > 100 µM | TGI (SN12C renal): > 100 µM | TGI (SW-620 colon): > 100 µM | TGI (TK-10 renal): > 100 µM

CC(=O)c1cc2c3c(c1)c1cc4c(cc1c(=O)n3CC2)OCO4
TGI (A549 NSCLC): > 100 µM | TGI (COLO 205 colon): > 100 µM | TGI (HCT-116 colon): 26.6 µM | TGI (KM12 colon): > 100 µM | TGI (SF-295 CNS): > 100 µM | TGI (SK-MEL-2 melanoma): > 100 µM | TGI (SN12C renal): > 100 µM | TGI (SW-620 colon): > 100 µM | TGI (TK-10 renal): > 100 µM
